Target: T1, AXL (human catalytic domain) (Homo sapiens, UniProt P30530)
T1 construct: purchased Upstate Ltd. 14-512
T1 sequence (P30530 473-894): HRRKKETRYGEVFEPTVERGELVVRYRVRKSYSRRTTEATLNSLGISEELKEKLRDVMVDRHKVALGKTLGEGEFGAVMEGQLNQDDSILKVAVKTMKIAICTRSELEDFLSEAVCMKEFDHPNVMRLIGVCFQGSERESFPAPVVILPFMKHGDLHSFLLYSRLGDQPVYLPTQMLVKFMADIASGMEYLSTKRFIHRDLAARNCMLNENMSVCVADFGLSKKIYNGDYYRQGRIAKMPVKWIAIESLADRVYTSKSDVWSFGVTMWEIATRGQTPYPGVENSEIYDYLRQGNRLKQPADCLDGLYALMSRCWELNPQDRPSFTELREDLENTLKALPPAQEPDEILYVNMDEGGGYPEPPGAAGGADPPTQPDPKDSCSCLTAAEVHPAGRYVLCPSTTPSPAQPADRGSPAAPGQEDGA
Assay: AXL (human catalytic domain) Enzyme Activity Assay (IMAP fluorescence polarisation)
Format: biochemical
Protocol: Biological Methods AXL (human catalytic domain) Enzyme Activity Assay Reagents
Kinase Assay Reaction Buffer: This consisted of 20 mM HEPES pH 7.0, 10 mM MgCl2, 1 mM DTT, […], 0.01% Triton X100 (v/v), and 0.01% BSA (w/v). All buffer components were purchased from Sigma-Aldrich at reagent grade or higher.
Kinase: Recombinant AXL isoform 1 (aa473-894 corresponding to Genbank Accession Number NP 068713) at 2 mg/mL (20.8 μM) was purchased from Upstate Ltd. (Product code 14-512, lot #28164U). The enzyme was stored at −80° C. and a working stock was prepared to a concentration of 30 nM by diluting 20.8 μM stock 1:693 in cold (4° C.) 1× Reaction Buffer. Final enzyme concentration in the assay was 15 nM.
Substrate: Fluorescein labelled CSK-tide 5FAM-[…]-NH2 was obtained from Molecular Devices (Product code R7270) and used at a working concentration of 200 nM by diluting the 100 μM stock 1:500 in 1× Reaction Buffer in a mix with the enzyme. A negative control (lacking enzyme) was prepared at the same concentrations. Final substrate concentration in the assay was 100 nM.
ATP: Supplied by Sigma (product code A-7699). A 100 mM ATP stock was prepared in […] and used at a working concentration of 375 μM by diluting the 100 mM stock 1:266.6 in Reaction Buffer. Final ATP concentration in the assay was 150 μM; this concentration represents the KM.ATP for this enzyme calculated in this assay.
IMAP Reagents: IMAP screening express kit was obtained from Molecular Devices (product code R8127). The binding reagent was gently re-suspended before diluting by 1:1000 in buffer (Binding Buffer is supplied as a 5× stock and so was diluted with water prior to use—this assay used 40% buffer A and 60% buffer B) and then vortexed before addition to wells. The binding reagent was used at a final dilution of 1:1333.
1 μL samples of test compounds in 10% DMSO/water were added to “test” wells by dry-spotting using a Matrix Platemate Plus. 5 μL Kinase/Substrate in Reaction Buffer were added to columns 1-22 of a Corning black low binding 384 well #6754 (90 μL volume) microplate to give 12 nM and 100 nM reaction concentration respectively. 5 μL substrate in Reaction Buffer was added to columns 23 and 24 to give 100 nM reaction concentration. 4 μL ATP in Reaction Buffer was added to all wells to give 150 μM reaction concentration. The reaction mixture was then incubated at room temperature for 60 minutes. The incubation period was followed by the addition of 20 μL IMAP Binding Reagent in Binding Buffer to all wells. The IMAP reaction detection was further incubated at room temperature overnight. The FP on a Tecan Ultra Plate reader was recorded as a single read at Ex485 Em535.
Percentage inhibition was calculated based on activity of the test sample minus the average values in the blank wells relative to the average values measured in control wells minus the average values in the blank wells.
IC50 values were calculated from 10 point dose sigmoid ‘dose-response’ curves using XIfit software (IDBS Inc, USA). Data were fitted to a 4 parameter logistic model/sigmoidal dose response defined by the following equation:
[formula] where: • A=fit minimum (locked to 0); • B=fit maximum (locked to 100); • C=fit midpoint (pre-fit to 1); and • D=slope at linear portion of curve, hillslope (pre-fit to 0.1).
The value for C represents the IC50 of the test compound.

[1] = first data set, recombinant AXL isoform 1 aa473-894, 150 μM ATP
[2] = further data set (WW-001 through WW-169, XX-001 through XX-469, YY-001 through YY-016, ZZ-001 through ZZ-003), 150 μM ATP

IC50 [1]	IC50 [2]	SMILES
1000 to 10000 nM	1000 to 10000 nM	O=C(Nc1nc2cccc(-c3cccc(O)c3)n2n1)C1CC1 [WW-020]
< 1000 nM	100 to 1000 nM	O=C(Nc1nc2cccc(-c3ccc(O)cc3)n2n1)C1CC1 [WW-022, cyclopropanecarboxylic acid [5-(4-hydroxy-phenyl)-[1,2,4]triazolo[1,5-a]pyridin-2-yl]-amide]
1000 to 10000 nM	1000 to 10000 nM	O=C(Nc1nc2cccc(-c3ccc(Cl)cc3)n2n1)C1CC1 [WW-023]
1000 to 10000 nM	1000 to 10000 nM	COc1cccc(-c2cccc3nc(NC(=O)C4CC4)nn23)c1 [WW-024]
1000 to 10000 nM	1000 to 10000 nM	O=C(Nc1nc2cccc(-c3ccccc3F)n2n1)C1CC1 [WW-025]
< 1000 nM	100 to 1000 nM	O=C(Nc1nc2cccc(-c3ccc(N4CCOCC4)cc3)n2n1)C1CC1 [WW-026]
1000 to 10000 nM	1000 to 10000 nM	O=C(Nc1nc2cccc(-c3ccc(CO)cc3)n2n1)C1CC1 [WW-027]
1000 to 10000 nM	1000 to 10000 nM	O=C(Nc1nc2cccc(-c3cccc(CO)c3)n2n1)C1CC1 [WW-028]
1000 to 10000 nM	1000 to 10000 nM	CN(C)C(=O)c1ccc(-c2cccc3nc(NC(=O)C4CC4)nn23)cc1 [WW-029]
1000 to 10000 nM	1000 to 10000 nM	O=C(Nc1nc2cccc(-c3ccnc(F)c3)n2n1)C1CC1 [WW-030]
1000 to 10000 nM	1000 to 10000 nM	O=C(Nc1nc2cccc(-c3ccc(C(F)(F)F)cc3)n2n1)C1CC1 [WW-031]
1000 to 10000 nM	1000 to 10000 nM	O=C(Nc1nc2cccc(-c3cccc(C(F)(F)F)c3)n2n1)C1CC1 [WW-033]
1000 to 10000 nM	1000 to 10000 nM	Cc1cccc(-c2cccc3nc(NC(=O)C4CC4)nn23)c1 [WW-034]
< 1000 nM	100 to 1000 nM	CCOc1ccc(-c2cccc3nc(NC(=O)C4CC4)nn23)cc1 [WW-035]
1000 to 10000 nM	1000 to 10000 nM	CN(C)c1ccc(-c2cccc3nc(NC(=O)C4CC4)nn23)cn1 [WW-036]
1000 to 10000 nM	1000 to 10000 nM	O=C(Nc1nc2cccc(-c3ccccc3O)n2n1)C1CC1 [WW-037]
1000 to 10000 nM	1000 to 10000 nM	COc1ccc(-c2cccc3nc(NC(=O)CC4CC4)nn23)cc1 [WW-038]
1000 to 10000 nM	1000 to 10000 nM	COc1ccc(-c2cccc3nc(NC(C)=O)nn23)cc1 [WW-039]
1000 to 10000 nM	1000 to 10000 nM	CCC(=O)Nc1nc2cccc(-c3ccc(OC)cc3)n2n1 [WW-040]
1000 to 10000 nM	1000 to 10000 nM	COCC(=O)Nc1nc2cccc(-c3ccc(OC)cc3)n2n1 [WW-041]
1000 to 10000 nM	1000 to 10000 nM	COc1ccc(-c2cccc3nc(NC(=O)C4CCC4)nn23)cc1 [WW-042]
1000 to 10000 nM	1000 to 10000 nM	COc1ccc(-c2cccc3nc(NC(=O)CC(C)C)nn23)cc1 [WW-043]
1000 to 10000 nM	1000 to 10000 nM	COc1ccc(-c2cccc3nc(NC(=O)C4CCCC4)nn23)cc1 [WW-046]
< 1000 nM	100 to 1000 nM	Cc1ccc(-c2cccc3nc(NC(=O)C4CC4)nn23)cc1 [WW-047]
< 1000 nM	100 to 1000 nM	O=C(Nc1nc2cccc(-c3ccc4c(c3)OCO4)n2n1)C1CC1 [WW-049]
1000 to 10000 nM	1000 to 10000 nM	NCc1ccc(-c2cccc3nc(NC(=O)C4CC4)nn23)cc1 [WW-050]
1000 to 10000 nM	1000 to 10000 nM	O=C(Nc1nc2cccc(-c3cncc(F)c3)n2n1)C1CC1 [WW-052]

IC50 [1]	IC50 [2]	SMILES
1000 to 10000 nM	1000 to 10000 nM	O=C(Nc1nc2cccc(-c3ccn[nH]3)n2n1)C1CC1 [WW-053]
< 1000 nM	100 to 1000 nM	Nc1cccc(-c2cccc3nc(NC(=O)C4CC4)nn23)c1 [WW-054]
1000 to 10000 nM	1000 to 10000 nM	Cc1ccc(-c2cccc3nc(NC(=O)C4CC4)nn23)s1 [WW-055]
1000 to 10000 nM	1000 to 10000 nM	O=C(Nc1nc2cccc(-c3ccoc3)n2n1)C1CC1 [WW-056, Cyclopropanecarboxylic acid (5-furan-3-yl [1,2,4]triazolo[1,5-a]pyridin-2-yl)-amide]
1000 to 10000 nM	1000 to 10000 nM	O=C(Nc1nc2cccc(-c3cccs3)n2n1)C1CC1 [WW-057]
1000 to 10000 nM	1000 to 10000 nM	Cc1csc(-c2cccc3nc(NC(=O)C4CC4)nn23)c1 [WW-058]
< 1000 nM	100 to 1000 nM	O=C(Nc1nc2cccc(-c3ccsc3)n2n1)C1CC1 [WW-059]
1000 to 10000 nM	1000 to 10000 nM	O=C(Nc1nc2cccc(-c3cn[nH]c3)n2n1)C1CC1 [WW-060, cyclopropanecarboxylic acid [5-(1H-pyrazol-4-yl)-[1,2,4]triazolo[1,5-a]pyridin-2-yl]-amide]
1000 to 10000 nM	1000 to 10000 nM	O=C(Nc1nc2cccc(-c3ccco3)n2n1)C1CC1 [WW-061]
1000 to 10000 nM	1000 to 10000 nM	O=C(Nc1nc2cccc(-c3ccc(N4CCOCC4)nc3)n2n1)C1CC1 [WW-062]
< 1000 nM	100 to 1000 nM	O=C(Nc1nc2cccc(-c3ccc(-c4ccccc4)cc3)n2n1)C1CC1 [WW-063]
< 1000 nM	100 to 1000 nM	Cn1cc(-c2cccc3nc(NC(=O)C4CC4)nn23)cn1 [WW-064]
< 1000 nM	100 to 1000 nM	Cn1ccc2cc(-c3cccc4nc(NC(=O)C5CC5)nn34)ccc21 [WW-066]
1000 to 10000 nM	1000 to 10000 nM	COc1ccc(-c2cccc3nc(NC(=O)C4CC4)nn23)cc1F [WW-067]
1000 to 10000 nM	1000 to 10000 nM	CC(=O)Nc1ccc(-c2cccc3nc(NC(=O)C4CC4)nn23)cc1 [WW-068]
< 1000 nM	100 to 1000 nM	CN(C)c1ccc(-c2cccc3nc(NC(=O)C4CC4)nn23)cc1 [WW-069]
1000 to 10000 nM	1000 to 10000 nM	COC(=O)c1ccc(-c2cccc3nc(NC(=O)C4CC4)nn23)cc1 [WW-070]
1000 to 10000 nM	1000 to 10000 nM	CN(C)c1cccc(-c2cccc3nc(NC(=O)C4CC4)nn23)c1 [WW-071]
1000 to 10000 nM	1000 to 10000 nM	CCCCNc1cccc2nc(NC(=O)C3CC3)nn12 [WW-073]
1000 to 10000 nM	1000 to 10000 nM	O=C(Nc1nc2cccc(NCc3ccccn3)n2n1)C1CC1 [WW-075, Cyclopropanecarboxylic acid {5-[(pyridin-2-ylmethyl)-amino]-[1,2,4]triazolo[1,5-a]pyridin-2-yl}-amide]
1000 to 10000 nM	1000 to 10000 nM	CN1CCCC1CCNc1cccc2nc(NC(=O)C3CC3)nn12 (stereo not shown) [WW-076]
1000 to 10000 nM	1000 to 10000 nM	O=C(Nc1nc2cccc(NCCc3c[nH]c4ccccc34)n2n1)C1CC1 [WW-077]
1000 to 10000 nM	1000 to 10000 nM	O=C(Nc1nc2cccc(NC3CCCC3)n2n1)C1CC1 [WW-078]
1000 to 10000 nM	1000 to 10000 nM	CC(C)CNc1cccc2nc(NC(=O)C3CC3)nn12 [WW-079]
1000 to 10000 nM	1000 to 10000 nM	CC(C)(C)CNc1cccc2nc(NC(=O)C3CC3)nn12 [WW-080]
1000 to 10000 nM	1000 to 10000 nM	O=C(Nc1nc2cccc(NCc3cccc(Cl)c3)n2n1)C1CC1 [WW-081]

Reference: patent US8431596B2 (Cancer Research Technology Limited, priority 2007, dated 2013)
